Converted amounts (≈) assume the structure as drawn.
Key:
P. aeruginosa ATCC 27853 [1] = test: Quantitative antimicrobial activity, serial binary microdilution (MIC, IC50); assay type: cell-based; details: Pseudomonas aeruginosa, ATCC27853, reference drug
Method: (§1) For the evaluation of antimicrobial activity, the following reference strains were used: S. aureus ATCC 25923, E. faecalis ATCC 29212, E. coli ATCC 25922, P. aeruginosa ATCC 27853 and C. albicans ATCC 10231.
(§2) Quantitative analysis was performed using the method of serial binary microdilutions in liquid medium (Tryptone Soy Broth for bacteria and Sabouraud Broth for yeasts) in plates with 96 wells. Stock solutions of 10 mg/mL were made in DMSO, and the range of concentrations tested for each compound was 5000–0.16 μg/mL. Simultaneously, the DMSO control was carried out under the same working conditions. Each well was inoculated with 10 μL of microbial suspension, adjusted to a density of 1.5 × 10^8 CFU/mL prepared from 18 to 24 h cultures. After 24 h of incubation at 37 °C, microbial growth and multiplication were evaluated both macroscopically and spectrophotometrically at 620 nm to establish the MIC values. […] Blanks were made for each sample concentration, and the formula was applied: Microbial viability(%)=Asample−Ablank/Astrain control−Asterility control·100

S. aureus ATCC 25923 [2] = test: as above; assay type: cell-based; details: Staphylococcus aureus, ATCC25923; S. aureus ATCC 25923; reference drug
Method: as §1, §2

E. coli ATCC 25922 [3] = test: as above; assay type: cell-based; details: Escherichia coli, ATCC25922; E. coli ATCC 25922; reference drug
Method: as §1, §2

E. faecalis ATCC 29212 [4] = test: as above; assay type: cell-based; details: Enterococcus faecalis, ATCC29212, reference drug
Method: as §1, §2

P. aeruginosa ATCC 27853 [5] = test: Qualitative antimicrobial activity, adapted Kirby-Bauer (inhibition zone); assay type: cell-based; details: reference drug at 100 μg/mL
Method: (§3) For the evaluation of antimicrobial activity, the following reference strains were used: S. aureus ATCC 25923, E. faecalis ATCC 29212, E. coli ATCC 25922, P. aeruginosa ATCC 27853 and C. albicans ATCC 10231. The microbial suspensions were prepared at a density of 1.5 × 10^8 CFU/mL, corresponding to the McFarland 0.5 nephelometric standard. These suspensions were obtained from 18–24 h cultures developed on solid media (Mueller-Hinton for bacteria, Sabouraud for yeast). Antimicrobial activity was assessed using an adapted Kirby-Bauer method according to CLSI (Clinical and Laboratory Standards Institute). In addition to the 10 mg/mL stock solutions prepared in DMSO for each compound, a solvent control was used. Each stock solution (10 μL) was distributed in spot on the medium inoculated with the interest strain. After measuring the diameter of the inhibition zone (IZD) around the spot (mm), the results were expressed as the mean ± standard deviation (SD) for each compound tested in duplicate.

S. aureus ATCC 25923 [6] = test: as above; assay type: cell-based; details: reference drug at 100 μg/mL
Method: as §3

E. coli ATCC 25922 [7] = test: as above; assay type: cell-based; details: reference drug at 100 μg/mL
Method: as §3

E. faecalis ATCC 29212 [8] = test: as above; assay type: cell-based; details: reference drug at 100 μg/mL
Method: as §3

P. aeruginosa ATCC 27853 [9] = test: Microbial adhesion, crystal violet (MICMA); assay type: cell-based; details: reference drug
Method: as §1
(§4) Following quantitative analysis of antimicrobial activity, microbial adhesion was evaluated after methanol fixation and violet crystal staining (0.1%). The absorbance of the adhered biomass colored with violet crystal and resuspended in 33% acetic acid was measured at 490 nm.

S. aureus ATCC 25923 [10] = test: Microbial adhesion, crystal violet (MICMA); assay type: cell-based; details: reference drug
Method: as §1, §4

E. coli ATCC 25922 [11] = test: Microbial adhesion, crystal violet (MICMA); assay type: cell-based; details: reference drug
Method: as §1, §4

E. faecalis ATCC 29212 [12] = test: Microbial adhesion, crystal violet (MICMA); assay type: cell-based; details: reference drug
Method: as §1, §4

P. aeruginosa ATCC 27853 [13] = test: Microbicidal activity (MMC); assay type: cell-based; details: reference drug
Method: (§5) For the evaluation of antimicrobial activity, the following reference strains were used: S. aureus ATCC 25923, E. faecalis ATCC 29212, E. coli ATCC 25922, P. aeruginosa ATCC 27853 and C. albicans ATCC 10231. To determine the MMCs, 5 μL of culture was taken from each well and distributed on solid medium. The plates were incubated for 20–24 h at 37 °C. The lowest concentration at which no microbial growth was observed was considered MMC.

S. aureus ATCC 25923 [14] = test: Microbicidal activity (MMC); assay type: cell-based; details: reference drug
Method: as §5

E. coli ATCC 25922 [15] = test: Microbicidal activity (MMC); assay type: cell-based; details: reference drug
Method: as §5

E. faecalis ATCC 29212 [16] = test: Microbicidal activity (MMC); assay type: cell-based; details: reference drug
Method: as §5

[17] = Total antioxidant capacity (TAC), DPPH method; details: 30 min, 517 nm, compound stock 1 mg/mL in methanol, reference ascorbic acid TAC = 100%
Method: The total antioxidant capacity (TAC) was evaluated using diphenyl-1-picrylhydrazyl free radical (DPPH) method. The TAC value was determined in relation to the antioxidant capacity of the reference (ascorbic acid, TAC = 100%). […] The maximum value was recorded for 1c (~45%), followed by 1f and 1a (~43%), while the minimum for 1e (~19%).
In this study, the TAC values were obtained using the most-known DPPH method, in which the intense violet colour of the free radical solution is decreasing. Stock solutions of compounds 1a–1f and 2 were prepared in absolute methanol at a concentration of 1 mg/mL. A stock solution of 2,2-diphenyl-1-picrylhydrazyl free radical was obtained in the same solvent, at a concentration of 2 × 10^−4 M. To 1.8 mL of DPPH solution was added 0.2 mL of each solution of the compounds 1a–1f and 2 and the mixture was left in the dark for 30 min, followed by measurements of the absorbance at 517 nm. The following equation was used to calculate TAC: TAC%=Abs0 min−Abs30 min/Abs0min·100 where Abs0 min refers to the initial absorbance of the DPPH free radical solution, and Abs 30 min refers to the absorbance of the solution of DPPH and the added compound after 30 min. Ascorbic acid was used as a reference.

[18] = system: HT-29 (human colorectal adenocarcinoma); test: Cytotoxicity, MTT assay; assay type: cell-based; details: 24 h, tested range 3.125 to 50 µM
Method: (§6) For the cytotoxicity screening of the N-acyl-hydrazone derivatives, three cell lines were employed: HT-29 (human colorectal adenocarcinoma), A431 (human epidermoid carcinoma), and VERO (non-tumoral African green monkey kidney epithelial cells). All cell lines were obtained from the American Type Culture Collection (ATCC, Manassas, VA, USA), and maintained in appropriate culture media as follows: HT-29 and A431 cells were cultured in Dulbecco’s Modified Eagle Medium (DMEM), while VERO cells were cultured in Minimum Essential Medium (MEM). Both culture media were supplemented with 10% fetal bovine serum (FBS) and 1% penicillin-streptomycin mix, to formulate the complete culture medium. All cell lines were incubated at 37 °C in a humidified atmosphere containing 5% CO2. […] For the cytotoxicity screening, cells were seeded into sterile 96-well plates at an initial density of 1 × 10^4 cells/well and allowed to adhere for 24 h. Subsequently, cells were treated with increasing concentrations (3.125 to 50 µM) of compounds 1a–1f and 2 for 24 h. In parallel, 5-fluorouracil (5-FU, Sigma Aldrich, St. Louis, MO, USA) was included as a reference drug and tested over the same concentration range under identical experimental conditions. […] For the experimental control, culture medium was refreshed at the time of treatment application. […] Louis, MO, USA). Briefly, the culture media were discarded from each well and replaced with a fresh solution of MTT (1 mg/mL). Plates were incubated for 4 h at 37 °C, and the resulting formazan crystals were solubilized with isopropanol. The absorbance was measured at 550 nm using the FlexStation III multimodal reader (Molecular Devices, San Jose, CA, USA). All experiments were performed in triplicate and repeated in three independent assays. Cell viability was calculated as a percentage relative to the untreated control using the formula Cell Viability (%) = (Abs treated/Abs control) × 100. Data were processed using GraphPad Prism 6.0 and presented as mean ± standard deviation (SD). Statistical analysis was performed using one-way analysis of variance (ANOVA) followed by Dunnett’s post hoc test for comparison with the untreated control group.

[19] = system: VERO (non-tumoral African green monkey kidney epithelial cells); test: Cytotoxicity, MTT assay; assay type: cell-based; details: 24 h
Method: as §6

C. albicans ATCC 10231 [20] = test: Quantitative antimicrobial activity, serial binary microdilution (MIC, IC50); assay type: cell-based; details: Candida albicans, ATCC10231, reference drug
Method: as §1, §2

C. albicans ATCC 10231 [21] = test: Qualitative antimicrobial activity, adapted Kirby-Bauer (inhibition zone); assay type: cell-based; details: reference drug at 140 μg/mL
Method: as §3

C. albicans ATCC 10231 [22] = test: Microbial adhesion, crystal violet (MICMA); assay type: cell-based; details: reference drug
Method: as §1, §4

C. albicans ATCC 10231 [23] = test: Microbicidal activity (MMC); assay type: cell-based; details: reference drug
Method: as §5

O=C(O)c1cn(C2CC2)c2cc(N3CCNCC3)c(F)cc2c1=O [Ciprofloxacin, ciprofloxacin, reference compound]
MIC (P. aeruginosa ATCC 27853 [1]): 0.39 µg/mL (≈ 1.18 µM)
MIC (S. aureus ATCC 25923 [2]): 0.78 µg/mL (≈ 2.35 µM)
MIC (E. coli ATCC 25922 [3]): 0.2 µg/mL (≈ 0.604 µM)
MIC (E. faecalis ATCC 29212 [4]): 0.78 µg/mL (≈ 2.35 µM)
IZD (100 μg/mL, mm) (P. aeruginosa ATCC 27853 [5]): 15.33 ± 0.58 mm
IZD (100 μg/mL, mm) (S. aureus ATCC 25923 [6]): 17.33 ± 0.58 mm
IZD (100 μg/mL, mm) (E. coli ATCC 25922 [7]): 34.00 ± 2.00 mm
IZD (100 μg/mL, mm) (E. faecalis ATCC 29212 [8]): 8.33 ± 0.58 mm
MICMA (P. aeruginosa ATCC 27853 [9]): 0.39 µg/mL
MICMA (S. aureus ATCC 25923 [10]): 0.39 µg/mL
MICMA (E. coli ATCC 25922 [11]): <0.10 µg/mL
MICMA (E. faecalis ATCC 29212 [12]): 0.78 µg/mL
MMC (P. aeruginosa ATCC 27853 [13]): 0.39 µg/mL
MMC (S. aureus ATCC 25923 [14]): 1.56 µg/mL
MMC (E. coli ATCC 25922 [15]): 0.78 µg/mL
MMC (E. faecalis ATCC 29212 [16]): 6.25 µg/mL

O=C1O[C@H]([C@@H](O)CO)C(O)=C1O [ascorbic acid, reference compound]
TAC (%) [17]: 100%

O=c1[nH]cc(F)c(=O)[nH]1 [Compound 5-FU, 5-fluorouracil, reference compound]
IC50 [18]: not reached within the tested concentration range
Maximum reduction in viability ([19]; 50 µM): approximately 25%
IC50 ([19]; tested range 3.125 to 50 µM): not reached within the tested range

CC(=O)N1CCN(c2ccc(OCC3COC(Cn4ccnc4)(c4ccc(Cl)cc4Cl)O3)cc2)CC1 (stereo not drawn) [Ketoconazole, ketoconazole, reference compound]
MIC (C. albicans ATCC 10231 [20]): 8.75 µg/mL (≈ 16.5 µM)
IZD (140 μg/mL, mm) (C. albicans ATCC 10231 [21]): 6.5 ± 0.71 mm
MICMA (C. albicans ATCC 10231 [22]): 0.27 µg/mL
MMC (C. albicans ATCC 10231 [23]): 35 µg/mL

— publication PMC12845261, “Design, Synthesis, and Biological Evaluation of N-Acyl-Hydrazone-Linked Quinazolinone Derivatives with Antioxidant, Antimicrobial, and Anticancer Potential” (Pharmaceuticals, 2025)
